Our source for the T/C values is PubChem BioAssay AID248 (DTP/NCI, 2004).

SMILES strings stand for the structures. Several values for one entry are separate records, joined by “and”; a condition that tells them apart may be missing. Equal entries are not always repeated. Inconclusive results and toxic doses are left out.

The assay relates to L1210 leukemia ip in BDF1 mice, survival T/C. Briefly: NCI In Vivo Anticancer Drug Screen. Data for tumor model L1210 Leukemia (intraperitoneal) in B6D2F1 (BDF1) mice. Conditions: endpoint: mean survival time, higher = longer survival. Put shortly:
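Mice bearing the transplanted tumor received compound or vehicle. Survival of the treated group was divided by that of the vehicle-treated control group to give the ratio.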

The mark [1] stands for this setting: dose: 100.0 mg/kg/injection, schedule: Q04DX003 (ip), vehicle: saline with Tween-80.
Where [2] appears, read: dose: 200.0 mg/kg/injection, schedule: Q04DX003 (ip), vehicle: saline with Tween-80.
Where [3] appears, read: dose: 400.0 mg/kg/injection, schedule: Q04DX003 (ip), vehicle: saline with Tween-80.
Setting [4] is: dose: 100.0 mg/kg/injection, schedule: Q01DX009 (ip), vehicle: saline with Tween-80.
Setting [5] is: dose: 200.0 mg/kg/injection, schedule: Q01DX009 (ip), vehicle: saline with Tween-80.
The mark [6] stands for this setting: dose: 12.5 mg/kg/injection, schedule: Q04DX003 (ip), vehicle: Klucel (hydroxypropylcellulose) (HPC).
Where [7] appears, read: dose: 25.0 mg/kg/injection, schedule: Q04DX003 (ip), vehicle: Klucel (hydroxypropylcellulose) (HPC).
The mark [8] stands for this setting: dose: 100.0 mg/kg/injection, schedule: Q01DX009 (ip), vehicle: saline.
Setting [9] is: dose: 200.0 mg/kg/injection, schedule: Q01DX009 (ip), vehicle: saline.

As for `CN=C(N)c1ccc(NC(=O)c2ccc(C(=O)Nc3ccc(C(N)=NC)cc3)cc2)cc1`, the T/C by setting is: (dose: 1.9 mg/kg/injection, schedule: Q01DX Z (ip), vehicle: methylcellulose (MC)) 102 % of control; (dose: 2.0 mg/kg/injection, schedule: Q01DX006 (iv), vehicle: saline) 104 % of control; (dose: 2.0 mg/kg/injection, schedule: Q01DX Z (sc), vehicle: saline) 101 % of control; (dose: 2.0 mg/kg/injection, schedule: Q02DX004 (im), vehicle: saline) 103 % of control; (dose: 3.75 mg/kg/injection, schedule: Q01DX Z (ip), vehicle: methylcellulose (MC)) 124 % of control; (dose: 4.0 mg/kg/injection, schedule: Q01DX006 (iv), vehicle: saline) 103 % of control. For the same compound, the T/C is 97 % of control (dose: 4.0 mg/kg/injection, schedule: Q01DX Z (sc), vehicle: saline); 103 % of control (dose: 4.0 mg/kg/injection, schedule: Q02DX004 (im), vehicle: saline); 177 % of control (dose: 5.5 mg/kg/injection, schedule: Q01DX Z (ip), vehicle: methylcellulose (MC)); 106 % of control (dose: 8.0 mg/kg/injection, schedule: Q01DX006 (iv), vehicle: saline); 106 % of control (dose: 8.0 mg/kg/injection, schedule: Q01DX010 (oral), vehicle: saline); 94 % of control (dose: 8.0 mg/kg/injection, schedule: Q01DX Z (sc), vehicle: saline). In addition, the T/C was 108 % of control (dose: 8.0 mg/kg/injection, schedule: Q02DX004 (im), vehicle: saline); 150 % of control and 156 % of control (dose: 15.0 mg/kg/injection, schedule: Q01DX Z (ip), vehicle: methylcellulose (MC)); 97 % of control (dose: 16.0 mg/kg/injection, schedule: Q01DX010 (oral), vehicle: saline); 98 % of control (dose: 16.0 mg/kg/injection, schedule: Q01DX Z (sc), vehicle: saline); 108 % of control (dose: 16.0 mg/kg/injection, schedule: Q02DX004 (im), vehicle: saline); 171 % of control and 173 % of control (dose: 30.0 mg/kg/injection, schedule: Q01DX Z (ip), vehicle: methylcellulose (MC)). Besides, the T/C was 97 % of control (dose: 32.0 mg/kg/injection, schedule: Q01DX010 (oral), vehicle: saline); 100 % of control (dose: 42.4 mg/kg/injection, schedule: Q01DX007 (oral), vehicle: carboxymethylcellulose (CMC)); 174 % of control (dose: 60.0 mg/kg/injection, schedule: Q01DX Z (ip), vehicle: methylcellulose (MC)); 105 % of control (dose: 64.0 mg/kg/injection, schedule: Q01DX007 (oral), vehicle: carboxymethylcellulose (CMC)); 103 % of control (dose: 64.0 mg/kg/injection, schedule: Q01DX010 (oral), vehicle: saline); 103 % of control (dose: 96.0 mg/kg/injection, schedule: Q01DX007 (oral), vehicle: carboxymethylcellulose (CMC)). In addition, the T/C was 108 % of control (dose: 120.0 mg/kg/injection, schedule: Q01DX Z (ip), vehicle: methylcellulose (MC)); 108 % of control (dose: 144.0 mg/kg/injection, schedule: Q01DX007 (oral), vehicle: carboxymethylcellulose (CMC)); 100 % of control (dose: 150.0 mg/kg/injection, schedule: Q01DX Z (oral), vehicle: saline); 93 % of control (dose: 300.0 mg/kg/injection, schedule: Q01DX Z (oral), vehicle: saline); 115 % of control (dose: 600.0 mg/kg/injection, schedule: Q01DX Z (oral), vehicle: saline).

For the compound `CCC(CO)(CO)[N+](=O)[O-]`, the T/C reads like this: under setting [1], 95 % of control; under setting [2], 91 % of control; under setting [3], 91 % of control.

Consider `CC(=O)NCCCc1c(C)nc(N)[nH]c1=O`, for which the T/C was 102 % of control (dose: 62.5 mg/kg/injection, schedule: Q01DX001 (ip), vehicle: Klucel (hydroxypropylcellulose) (HPC)); 102 % of control (dose: 125.0 mg/kg/injection, schedule: Q01DX001 (ip), vehicle: Klucel (hydroxypropylcellulose) (HPC)); 102 % of control (dose: 250.0 mg/kg/injection, schedule: Q01DX001 (ip), vehicle: Klucel (hydroxypropylcellulose) (HPC)).

On to `CC(NC(=O)OCc1ccccc1)C(=O)NC(CSCc1ccccc1)C(=O)O` (stereo unspecified), for which the T/C runs as follows: under setting [1], 97 % of control; under setting [2], 97 % of control; under setting [3], 97 % of control.

On to `CC(=O)NC1C(OS(=O)(=O)c2ccc(C)cc2)C(NC(C)=O)C(OC(C)=O)C(OC(C)=O)C1OC(C)=O` (stereo unspecified), for which the T/C by setting is: under setting [4], 102 % of control; under setting [5], 109 % of control; (dose: 400.0 mg/kg/injection, schedule: Q01DX009 (ip), vehicle: saline with Tween-80) 100 % of control.

As to `COc1cc([N+](=O)[O-])ccc1C`, the T/C runs as follows: (dose: 100.0 mg/kg/injection, schedule: Q01DX009 (ip), vehicle: other) 111 % of control; (dose: 100.0 mg/kg/injection, schedule: Q04DX003 (ip), vehicle: other) 97 % of control; (dose: 200.0 mg/kg/injection, schedule: Q01DX009 (ip), vehicle: other) 98 % of control; (dose: 200.0 mg/kg/injection, schedule: Q04DX003 (ip), vehicle: other) 90 % of control; (dose: 400.0 mg/kg/injection, schedule: Q01DX009 (ip), vehicle: other) 104 % of control; (dose: 400.0 mg/kg/injection, schedule: Q04DX003 (ip), vehicle: other) 88 % of control.

As to `CNC(=O)c1ccc(NC(=O)Nc2ccc(C3=NCCCN3)cc2)cc1NC(=O)Nc1ccc(C2=NCCCN2)cc1`, the T/C runs as follows: (dose: 11.5 mg/kg/injection, schedule: Q01DX Z (ip), vehicle: carboxymethylcellulose (CMC)) 108 % of control; (dose: 23.0 mg/kg/injection, schedule: Q01DX Z (ip), vehicle: carboxymethylcellulose (CMC)) 107 % of control; (dose: 46.0 mg/kg/injection, schedule: Q01DX Z (ip), vehicle: carboxymethylcellulose (CMC)) 166 % of control; (dose: 62.0 mg/kg/injection, schedule: Q01DX Z (oral), vehicle: carboxymethylcellulose (CMC)) 111 % of control; (dose: 92.0 mg/kg/injection, schedule: Q01DX Z (ip), vehicle: carboxymethylcellulose (CMC)) 177 % of control; (dose: 125.0 mg/kg/injection, schedule: Q01DX Z (oral), vehicle: carboxymethylcellulose (CMC)) 109 % of control. Further, the T/C was 108 % of control (dose: 250.0 mg/kg/injection, schedule: Q01DX Z (oral), vehicle: carboxymethylcellulose (CMC)) and 108 % of control (dose: 500.0 mg/kg/injection, schedule: Q01DX Z (oral), vehicle: carboxymethylcellulose (CMC)).

For `CCCC(=O)N(C(=O)CCC)c1cc2c3c(c1)CCCN3CCC2`, the T/C by setting is: under setting [6], 96 % of control; (dose: 25.0 mg/kg/injection, schedule: Q01DX009 (ip), vehicle: Klucel (hydroxypropylcellulose) (HPC)) 95 % of control; under setting [7], 93 % of control; (dose: 50.0 mg/kg/injection, schedule: Q01DX009 (ip), vehicle: Klucel (hydroxypropylcellulose) (HPC)) 92 % of control; (dose: 50.0 mg/kg/injection, schedule: Q04DX003 (ip), vehicle: Klucel (hydroxypropylcellulose) (HPC)) 95 % of control; (dose: 100.0 mg/kg/injection, schedule: Q04DX003 (ip), vehicle: saline) 93 % of control.

Turning to `CS(=O)(=O)c1ccc(N)cc1`, the T/C runs as follows: (dose: 6.25 mg/kg/injection, schedule: Q04DX003 (ip), vehicle: Klucel (hydroxypropylcellulose) (HPC)) 99 % of control; under setting [6], 95 % of control; under setting [7], 95 % of control; (dose: 50.0 mg/kg/injection, schedule: Q01DX009 (ip), vehicle: saline with Tween-80) 100 % of control; (dose: 50.0 mg/kg/injection, schedule: Q01DX009 (ip), vehicle: saline) 93 % of control; under setting [4], 92 % of control. Moreover, the T/C was 87 % of control under setting [8], 92 % of control under setting [5] and 93 % of control under setting [9].

Take `C=C(Cl)CSC1=NCCS1`: the T/C runs as follows: (dose: 100.0 mg/kg/injection, schedule: Q04DX002 (sc), vehicle: olive oil, sesame oil, peanut oil) 90 % of control; (dose: 200.0 mg/kg/injection, schedule: Q04DX002 (sc), vehicle: olive oil, sesame oil, peanut oil) 100 % of control; (dose: 400.0 mg/kg/injection, schedule: Q04DX002 (sc), vehicle: olive oil, sesame oil, peanut oil) 100 % of control.

Regarding `CCOC(=O)CNC(N)=O`, the T/C was 96 % of control under setting [8]; 107 % of control under setting [9]; 96 % of control (dose: 400.0 mg/kg/injection, schedule: Q01DX009 (ip), vehicle: saline).
